Measurements reported in patent US20090131356A1, “miR-15, miR-26, miR-31, miR-145, miR-147, miR-188, miR-215, miR-216, miR-331, mmu-miR-292-3P REGULATED GENES AND PATHWAYS AS TARGETS FOR THERAPEUTIC INTERVENTION” (ASURAGEN, INC., priority 2006, published 2009).

System: Du145 human prostate cancer cells
Experiment: Long-term growth curve with repeated electroporation, Du145
Format: cell-based
Conditions: 1.6 μM miRNA electroporated, repeated on days 7 and 14, day 20
Description: The inventors assessed the therapeutic effect of hsa-miR-15a for prostate cancer by using the Du145 human prostate cancer cell line, derived from a brain metastasis (Stone et al., 1978). The inventors conducted growth curve experiments in the presence of miRNA for up to 20 days. Since in vitro transfections of naked interfering RNAs, such as synthetic miRNA, are transient by nature and compromised by the dilution of the miRNA during ongoing cell divisions, miRNA was administered at multiple time points (Bartlett et al., 2006; Bartlett et al., 2007). To accommodate miRNA delivery into a large quantity of cells, the inventors employed the electroporation method for delivery of hsa-miR-15a or negative control miRNA into Du145 human prostate cancer cells. Briefly, 0.5×10^6 Du145 cells were electroporated with 1.6 μM hsa-miR-15a or negative control using the BioRad Gene Pulser Xcell™ instrument (BioRad Laboratories Inc., Hercules, Calif., USA), seeded and propagated in regular growth medium. Experiments were carried out in triplicates. When the control cells reached confluence (days 7 and 14), cells were harvested, counted and electroporated again with the respective miRNAs. To ensure similar treatment of both conditions as well as to accommodate exponential growth, the cell numbers used for the second and third electroporation were titrated down to the lowest count. The population doubling was calculated from these electroporation events using the formula PD=ln(Nf/N0)/ln2 and adjusting for the fact that approximately 72% of newly seeded cells adhere to the plate. Cell counts were extrapolated and plotted on a linear scale (FIG. 10). Arrows represent electroporation days. Standard deviations are included in the graphs.
To evaluate the therapeutic activity of hsa-miR-147 over an extended period of time, the inventors conducted growth curve experiments in the presence of miRNA for up to 21 days. Since in vitro transfections of naked interfering RNAs, such as synthetic miRNA, are transient by nature and compromised by the dilution of the oligo during ongoing cell divisions, miRNA was administered at multiple time points (Bartlett et al., 2006; Bartlett et al., 2007). To accommodate miRNA delivery into a large quantity of cells, the inventors employed the electroporation method to delivery hsa-miR-147 or negative control miRNA into PC3 and Du145 human prostate cancer cells. […] When the control cells reached confluence (days 7 and 14), cells were harvested, counted and electroporated again with the respective miRNAs. […] The population doubling was calculated from these electroporation events using the formula PD=ln(Nf/N0)/ln2 and adjusting for the fact that approximately 72% of newly seeded cells adhere to the plate. […]

hsa-miR-15a: Synthetic pre-miR-15a (Ambion); mature sequence UAGCAGCACAUAAUGGUUUGUG, MIMAT0000068, SEQ ID NO:1 (synthetic pre-miR (Ambion), chemistry not given here; listed as Homo sapiens)
cells relative to cells electroporated with negative control miRNA: 11.8%
inhibition of Du145 cell growth (relative to proliferation of control cells (100%)): 88.2%
